Measurements as given in BindingDB's records for patent US20250163064 (Amgen, 2025).

Tests used:
[1] = target: kras g12d tr-fret (Homo sapiens, UniProt P01116, G12D); experiment: KRAS G12D TR-FRET Assay
Experimental: The His-tagged KRAS G12D protein (Amgen) was diluted to 20 nM in Assay Buffer (20 mM HEPES, pH 7.4, 10 mM MgCl2, 50 mM NaCl, 0.1% BSA, 0.01% Tween-20, 10 μM GDP) and 2 μL was added to the appropriate wells of the 384-well plate. The plate was incubated for 30 minutes at rt. Biotinylated KRPep-2d substrate (Amgen) was diluted to […] in Assay Buffer and 2 AL was added to all wells and incubated for 1 hour at room temperature. Detection Reagent (0.4 nM LANCE Eu-W1024 Anti-6×His (Perkin Elmer AD0401), 5 nM streptavidin-d2 (Cisbio 610SADLA)) was prepared in Assay Buffer, then 4 AL was added to the plate and incubated for 1 h at rt.

[2] = target: GTPase KRas [G12D,C118A] (Homo sapiens, UniProt P01116, C118A/G12D); experiment: KRAS G12D Coupled Nucleotide Exchange Assay
GTPase KRas [G12D,C118A], sequence (P01116 whole entry G12D/C118A, looked up): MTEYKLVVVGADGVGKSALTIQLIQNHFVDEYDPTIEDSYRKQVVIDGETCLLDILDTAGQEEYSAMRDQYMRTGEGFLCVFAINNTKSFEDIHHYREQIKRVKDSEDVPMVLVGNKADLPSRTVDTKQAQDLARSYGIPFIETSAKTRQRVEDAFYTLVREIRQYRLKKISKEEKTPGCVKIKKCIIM
Experimental: The assay plates were then read on a PerkinElmer En Vision Multilabel Reader, using AlphaScreen technology, and data were analyzed using a 4-parameter logistic model to calculate IC50 values.

kras g12d tr-fret, sequence (P01116 whole entry G12D): as the sequence (P01116 whole entry G12D/C118A, looked up) above, with A118C counted along it

SMILES	IC50 [1] [nM]	IC50 [2] [nM]
N#Cc1c(N)sc2c(F)ccc(-c3c(Cl)cc4c(N5CC6CC(O)C(C6)C5)nc(OC[C@@]56CCCN5C[C@H](F)C6)nc4c3F)c12 (mixture of isomers) [US20250163064, Example 7]	4	6
N#Cc1c(N)sc2c(F)ccc(-c3c(Cl)cc4c(N5CCOCC(=O)C5)nc(OC[C@@]56CCCN5C[C@H](F)C6)nc4c3F)c12 [US20250163064, Example 6]		5
N#Cc1c(N)sc2c(F)ccc(-c3c(Cl)cc4c(N5CCCC6(CNC(=O)O6)C5)nc(OC[C@@]56CCCN5C[C@H](F)C6)nc4c3F)c12 (some centres undefined) [US20250163064, Example 17]	3	6

Now from value to compound:

IC50 [1] [nM]	IC50 [2] [nM]	SMILES
4	7	N#Cc1c(N)sc2c(F)ccc(-c3c(Cl)cc4c(N5CCCC(C#N)CC5)nc(OC[C@@]56CCCN5C[C@H](F)C6)nc4c3F)c12 (some centres undefined) [US20250163064, Example 3]
4	6	N#Cc1c(N)sc2c(F)ccc(-c3c(Cl)cc4c(N5CCCC[C@@H](O)C5)nc(OC[C@@]56CCCN5C[C@H](F)C6)nc4c3F)c12 [US20250163064, Example 4]
